Assay results from patent EP0066351A1, “Arylethanol amine derivatives, their preparation and use in pharmaceutical compositions” (priority 1981, dated 1982).
Counter-ions that a name gives are not always drawn. Like-named read-outs stand apart in the source and are kept apart here.

Columns and labels:
[1] = system: Female CFLP mice; test: Effect on energy expenditure and food intake of mice; type: in vivo; details: Mus musculus; for response vs control in vivo at 25.5 mg/kg / response vs control in vivo at 23.8 mg/kg / response vs control in vivo at 18.8 mg/kg / response vs control in vivo at 21.3 mg/kg / response vs control in vivo at 20.7 mg/kg / response vs control in vivo at 19.6 mg/kg / response vs control in vivo at 25.6 mg/kg / response vs control in vivo at 20.8 mg/kg / response vs control in vivo at 26.7 mg/kg / response vs control in vivo at 23.6 mg/kg / response vs control in vivo at 21.2 mg/kg: po, 21 h; for response vs control in vivo at 18.9 mg/kg: dose 18.9 mg/kg po, mice, 21 hours after dosing, percentage of mice dosed with water
Protocol: Female CFLP mice each weighing approximately 24 g, were given food and water ad lib before and during the experiment. The compounds were dissolved in water by addition of one mole of hydrochloric acid per mole of compound and these solutions were administered orally to each of 12 mice. A further 12 mice were dosed orally with water. The mice were placed in boxes through which air was drawn and the oxygen content of the air leaving the boxes was measured. The energy expenditure of the mice was calculated for 21 hours after dosing from the volume of air leaving the boxes and its oxygen content following the principles described by J B de V Weir, J Physiol (London) 109, 1-9, (1949). The food intake of the mice was measured over this same period of 21 hours. The results are expressed as a percentage of the mean food intake or rate of energy expenditure of the mice dosed with water.

[2] = system: Female CFLP mice; test: Hypoglycaemic activity: blood glucose after subcutaneous glucose load in fasted mice; type: in vivo; details: glucose 1 g/kg s.c. 30 minutes after dosing, area over 2 hours vs water controls
Protocol: Female CFLP mice, each weighing approximately 25 g, were fasted for 24 hours prior to the study. The compounds under study were administered orally as an aqueous solution to each of 7 mice. 7 mice were given water as a control. 30 minutes later a blood sample (20 µl) was obtained from the tail for the analysis of blood glucose. Immediately after taking this blood sample, glucose (1 g/kg body weight) was administered subcutaneously to each mouse. Blood samples were then obtained from each mouse at 30 minute intervals for 120 minutes.
Compounds that produced a significant (P<0.05) reduction of blood glucose, compared with control mice given water, at any time interval, were considered active. The area under the blood glucose curve over the 2 hour period after the administration of the glucose was calculated for each compound and compared with the value for control animals.

[3] = system: Rat hearts; test: Cardiac activity: rat hearts perfused by the Langendorff procedure
Protocol: Rat hearts were perfused by the Langendorff procedure as follows: • Hearts were dissected free within 30 seconds of death and reverse perfused via the aorta and coronary vessels with Krebs-Ringer bicarbonate solution (pH 7.4, 37 °C) gassed with 95% oxygen:5% carbon dioxide at a flow rate between 8-12 cm^3/minute. Responses were observed after injection of drug dissolved in isotonic saline into the perfusion media.
Results are expressed as a percentage of the maximum response due to salbutamol.

[4] = system: platelets; test: Collagen-induced platelet aggregation in human whole blood in vitro; type: cell-based; details: collagen EC50 in presence of compound divided by control EC50, 3 mins preincubation
Protocol: Collagen-induced platelet aggregation in human whole blood in vitro.
Collagen added to stirred citrated blood causes platelet aggregation. As the platelets aggregate, the concentration of single platelets falls. […] Inhibitors of aggregation, such as aspirin and dipyridamole, reduce the response to collagen.
Blood drawn from volunteers who denied taking aspirin within the previous seven days was mixed with 0.1 vol 129 mM trisodium citrate, dispensed into 0.5 ml aliquots and kept at 25°. Collagen (Hormon-Chemie, Munich) or 154 mM NaCl (control) was added to each aliquot of blood stirred at 1100 rpm in an aggregometer at 37° after 3 mins preincubation with compound or appropriate solvent. Aggregates were fixed by addition of 0.5 vol 4.5% formaldehyde or 0.05 vol phosphate-buffered glutaraldehyde. Single platelets were counted electronically. Responses, expressed as per cent fall in platelet count, were obtained to a range of collagen concentrations. The concentration producing a 50% maximal effect (EC50) was estimated from log10 concentration-response curves. Dose-ratios were calculated by dividing the EC50 obtained in the presence of compound under test by the control EC50.

[5] = system: rat ear; test: Topical anti-inflammatory activity: croton oil induced inflammation in the rat ear; type: in vivo; details: dose 1.0 mg/rat ear, topical in 1% croton oil in tetrahydrofuran; ear weight after 6 hours; active = significant (5% level) reduction vs non-drug treated control
Protocol: The method used is based on that described by G. Tonelli et al (Endocrinology, 77, 625-634, 1965). An inflammation is induced in the rat ear by the application of 50 µl of a 1% solution of croton oil in tetrahydrofuran, test compounds being dissolved in the irritant vehicle. After 6 hours the inflammation is assessed by killing the animals and weighing the ears. Topical anti-inflammatory activity of a compound is generally considered to be shown when a significant (5% level) reduction in ear weight is seen compared to non-drug treated control.

[6] = read-out: Mean Energy Expenditure (%)
[7] = Rattus norvegicus, read-out: Heart Rate
[8] = Rattus norvegicus, read-out: Heart Tension
[9] = final concentration in whole blood 200 µM
[10] = 10 μg added to perfusate, percentage of the maximum response due to salbutamol, perfused rat heart, read-out: Heart Rate
[11] = 10 μg added to perfusate, percentage of the maximum response due to salbutamol, perfused rat heart, read-out: Heart Tension
[12] = final concentration in whole blood 300 µM

COc1ccc(C[C@@H](C)NC[C@H](O)c2cccc(C(F)(F)F)c2)cc1F (racemic) [Example 9, N-[2-(3-Fluoro-4-methoxyphenyl)-1-methylethyl]-2-hydroxy-2-(3-trifluoromethylphenyl)ethanamine hydrobromide-(RR,SS) diastereoisomer]
response vs control in vivo at 25.5 mg/kg [1, 6]: 115%
response vs control in vivo at 25.5 mg/kg ([1]; read-out: Mean Food Intake (%)): 78%
Reduction in area under Blood glucose curve (%) ([2]; dose 2.5 μ moles/kg po): 18%
Emax at 0.01 mg [3, 7]: 16%
Emax at 0.01 mg [3, 8]: 4%

CC(=O)Oc1ccccc1C(=O)O [Aspirin, reference compound]
Dose-ratio [4, 9]: 2.4 ± 0.3(3)

OCCN(CCO)c1nc(N2CCCCC2)c2nc(N(CCO)CCO)nc(N3CCCCC3)c2n1 [Dipyridamole, reference compound]
Dose-ratio [4, 9]: 3.7 ± 1.1(4)

CC(Cc1ccc(OCc2ccccc2)cc1)NCC(O)c1cccc(C(F)(F)F)c1 (stereo not shown) [Example 1, N-[2-(4-Benzyloxyphenyl)-1-methylethyl]-2-hydroxy-2-(3-trifluoromethylphenyl)ethanamine]
response vs control in vivo at 23.8 mg/kg [1, 6]: 115%
response vs control in vivo at 23.8 mg/kg ([1]; read-out: Mean Food Intake (%)): 100%
Reduction in area under Blood glucose curve (%) ([2]; dose 12.5 μ moles/kg po): 36%
Emax at 0.01 mg [3, 10]: 0%
Emax at 0.01 mg [3, 11]: 7%

CC(Cc1ccc(O)cc1)NCC(O)c1cccc(C(F)(F)F)c1 (stereo not shown) [Example 2, N-[2-(4-Hydroxyphenyl)-1-methylethyl]-2-hydroxy-2-(3-trifluoromethylphenyl)ethanamine]
response vs control in vivo at 18.8 mg/kg [1, 6]: 126%
response vs control in vivo at 18.8 mg/kg ([1]; read-out: Mean Food Intake (%)): 90%
Reduction in area under Blood glucose curve (%) ([2]; dose 12.5 μ moles/kg po): 59%
Emax at 0.01 mg [3, 7]: 73%
Emax at 0.01 mg [3, 8]: 64%
Activity [5]: Active
Dose-ratio [4, 12]: 2.2

COc1ccc(CC(C)NCC(O)c2cccc(C(F)(F)F)c2)cc1OC (stereo not shown) [Example 3, N-[2-(3,4-Dimethoxyphenyl)-1-methylethyl]-2-hydroxy-2-(3-trifluoromethylphenyl)ethanamine]
response vs control in vivo at 21.3 mg/kg [1, 6]: 109%
response vs control in vivo at 21.3 mg/kg ([1]; read-out: Mean Food Intake (%)): 100%
Reduction in area under Blood glucose curve (%) ([2]; dose 12.5 μ moles/kg po): 43%
Emax at 0.01 mg [3, 10]: 14%
Emax at 0.01 mg [3, 11]: 33%
Activity [5]: Active

COc1ccc(CC(C)NCC(O)c2cccc(C(F)(F)F)c2)cc1F (stereo not shown) [Example 4, N-[2-(3-Fluoro-4-methoxyphenyl)-1-methylethyl]-2-hydroxy-2 (3-trifluoromethylphenyl)ethanamine]
response vs control in vivo at 20.7 mg/kg [1, 6]: 113%
response vs control in vivo at 20.7 mg/kg ([1]; read-out: Mean Food Intake (%)): 86%
Reduction in area under Blood glucose curve (%) ([2]; dose 1.0 μ moles/kg po): 28%
Emax at 0.01 mg [3, 7]: 0%
Emax at 0.01 mg [3, 8]: 5%
Dose-ratio [4, 12]: 2.3

COc1ccc(CC(C)NCC(O)c2cccc(C(F)(F)F)c2)cc1 (stereo not shown) [Example 5, N-[2-(4-Methoxyphenyl)-1-methylethyl]-2-hydroxy-2-(3-trifluoromethylphenyl) ethanamine]
response vs control in vivo at 19.6 mg/kg [1, 6]: 119%
response vs control in vivo at 19.6 mg/kg ([1]; read-out: Mean Food Intake (%)): 88%
Reduction in area under Blood glucose curve (%) ([2]; dose 1.0 μ moles/kg po): 27%
Emax at 0.01 mg [3, 7]: 0%
Emax at 0.01 mg [3, 8]: 8%

COc1cc(CC(C)NCC(O)c2cccc(C(F)(F)F)c2)ccc1OCc1ccccc1 (stereo not shown) [Example 6, N-[2-(4-Benzyloxy-3-methoxyphenyl)-1-methylethyl]-2-hydroxy-2-(3-trifluoromethylphenyl)ethanamine]
response vs control in vivo at 25.6 mg/kg [1, 6]: 114%
response vs control in vivo at 25.6 mg/kg ([1]; read-out: Mean Food Intake (%)): 75%
Emax at 0.01 mg [3, 10]: 6%
Emax at 0.01 mg [3, 11]: 25%

CC(Cc1ccc(OCc2ccccc2)c(Cl)c1)NCC(O)c1cccc(C(F)(F)F)c1 (stereo not shown) [Example 7, N-[2-(4-Benzyloxy-3-chlorophenyl)-1-methylethyl]-2-hydroxy-2-(3-trifluoromethylphenyl)ethanamine]
Reduction in area under Blood glucose curve (%) ([2]; dose 12.5 μ moles/kg po): 28%
Emax at 0.01 mg [3, 10]: 0%
Emax at 0.01 mg [3, 11]: 0%

CC(Cc1ccc(O)c(Cl)c1)NCC(O)c1cccc(C(F)(F)F)c1 (stereo not shown) [Example 8, N-[2-(3-Chloro-4-hydroxyphenyl)-1-methylethyl]-2-hydroxy-2-(3-trifluoromethylphenyl)ethanamine]
response vs control in vivo at 20.8 mg/kg [1, 6]: 118%
response vs control in vivo at 20.8 mg/kg ([1]; read-out: Mean Food Intake (%)): 88%
Reduction in area under Blood glucose curve (%) ([2]; dose 2.5 μ moles/kg po): 11%
Emax at 0.01 mg [3, 7]: 23%
Emax at 0.01 mg [3, 8]: 8%

CCCCCCCCCCOc1ccc(CC(C)NCC(O)c2cccc(C(F)(F)F)c2)cc1 (stereo not shown) [Example 10, N-[2-(4-^nDecyloxyphenyl)-1-methylethyl)-2-hydroxy-2-(3-trifluoromethylphenyl) ethanamine]
response vs control in vivo at 26.7 mg/kg [1, 6]: 118%
response vs control in vivo at 26.7 mg/kg ([1]; read-out: Mean Food Intake (%)): 89%
Reduction in area under Blood glucose curve (%) ([2]; dose 5.0 μ moles/kg po): 48%

CCCCCOc1ccc(CC(C)NCC(O)c2cccc(C(F)(F)F)c2)cc1 (stereo not shown) [Example 11, N-[2-(4-^nPentyloxyphenyl)-1-methylethyl]-2-hydroxy-2-(3-trifluoromethylphenyl) ethanamine]
response vs control in vivo at 23.6 mg/kg [1, 6]: 118%
response vs control in vivo at 23.6 mg/kg ([1]; read-out: Mean Food Intake (%)): 106%
Reduction in area under Blood glucose curve (%) ([2]; dose 2.5 μ moles/kg po): 47%

CC(Cc1ccc(OC(C)C)cc1)NCC(O)c1cccc(C(F)(F)F)c1 (stereo not shown) [Example 12, N-(2-(4-Isopropoxyphenyl)-1-methylethyl]-2-hydroxy-2-(3-trifluoromethylphenyl) ethanamine]
response vs control in vivo at 21.2 mg/kg [1, 6]: 122%
response vs control in vivo at 21.2 mg/kg ([1]; read-out: Mean Food Intake (%)): 94%
Reduction in area under Blood glucose curve (%) ([2]; dose 2.5 μ moles/kg po): 52%

COc1ccc(CCNCC(O)c2cccc(C(F)(F)F)c2)cc1 (stereo not shown) [Example 13, N-[2-(4-Methoxyphenyl)ethyl]-2-hydroxy-2-(3-trifluoromethylphenyl) ethanamine]
response vs control in vivo at 18.9 mg/kg [1, 6]: 112%
response vs control in vivo at 18.9 mg/kg ([1]; read-out: Mean Food Intake (%)): 104%
Reduction in area under Blood glucose curve (%) ([2]; dose 5.0 μ moles/kg po): 27%

COc1ccc(CCC(C)(C)NCC(O)c2cccc(C(F)(F)F)c2)cc1 (stereo not shown) [Example 14, N-[3-(4-Methoxyphenyl)-1,1-dimethylpropyl]-2-hydroxy-2-(3-trifluoromethylphenyl) ethanamine]
Reduction in area under Blood glucose curve (%) ([2]; dose 100 μ moles/kg po): 34%
